Test results: patent US20190211099A1, “METHODS AND COMPOSITIONS FOR TREATING CANCER WITH SIGLEC-9 ACTIVITY MODULATORS” (KING'S COLLEGE LONDON, priority 2016, published 2019)

Columns and labels:
[1] = test system: recombinant Siglecs 3, 7, 9 and 10; assay: Binding of biotinylated MUC1 glycoforms to plate-bound recombinant Siglec fusion proteins; set-up: species or system human; conditions: 2 μg/ml biotinylated MUC1 glycoform, 4 hours; panel Siglec 3, 5, 7, 8, 9 and 10
Procedure: Binding was enhanced when cells were pre-treated with 0.04 U/ml neuraminidase for 30 minutes at 37° C. in PBS (FIG. 3C), which removes competing cis-binding sialic acid sites from the surface of the cells. As this pattern is characteristic of binding to Siglecs (Macauley et al. (2014) NAT. REV. IMMUNOL. 14: 653-666), MUC1-ST binding to Siglecs was tested as follows: mouse anti human IgG was bound to plastic O/N and the plate was blocked using 1% BSA in PBS. Recombinant human Siglec (3, 5, 7, 8, 9 and 10) fusion proteins were added at 2 μg/mL for 2 hours. After incubation with 2 μg/ml biotinylated MUC1 glycoforms for 4 hours, O.D. was measured after the addition of streptavidin-HRP and substrate. […] Although Siglecs 3, 7 and 9 are expressed by monocytes and macrophages (FIG. 3D), a blocking antibody to Siglec-9 inhibited 80-95% of the MUC1-ST binding to these cells (FIGS. 2G-2I, 3E, and 5) indicating this is the dominant binding Siglec. […] Importantly, Siglec-9 bound to the breast cancer cell line T47D that expresses MUC1 carrying sialylated Core-1 glycans (FIG. 2J). Finally, isolated monocytes were bound to 10 μg/mL biotinylated MUC1-ST or 10 μg/mL biotinylated polyacrylamide carrying the ST glycan (PAA-ST; Glycotech).

monocytes from PBMCs = assay: MUC1-ST mediated TAM formation in monocytes from PBMCs, 7 day serum-free culture; type: cell-based, human
Procedure: To further explore the role of MUC1-ST in inducing a TAM-like phenotype, monocytes from PBMCs were plated in serum-free medium, incubated with MUC1-ST or PBS, and cultured for 7 days.
Intracellular calcium flux can lead to activation of the MEK/ERK pathway (Christo et al. (2015) IMMUNOL. AND CELL BIOLOGY 93: 694-704). […] Furthermore, treatment with the MEK inhibitor PD98059 at 10 μM inhibited MUC1-ST mediated TAM formation in monocytes (FIGS. 12B, 12D-12E).

CD8+ T cells = assay: Co-culture of MUC1-ST educated M-CSF macrophages with CD3/CD28 stimulated autologous T cells; type: cell-based, human; conditions: MUC1-ST educated M-CSF macrophages
Procedure: In addition, primary monocytes were induced to differentiate to macrophages in the presence of MUC1-ST and then co-cultured for 48 hours with CD3/CD28 stimulated autologous CD8+ or CD4+ T cells. T cell proliferation and CD69/CD25 cell surface expression were measured using flow cytometry.

Siglec-9 = Siglec-9 (Homo sapiens, UniProt Q9Y336); assay: MUC1-ST binding to monocytic cell lines THP-1 and U937, with or without blocking antibody; type: cell-based; set-up: endogenous in cells; host or cells: THP-1 and U937 cells; conditions: time and concentration dependent
Procedure: Unless indicated otherwise, all binding experiments using purified immune cell subsets and biotinylated purified recombinant tumor-associated MUC1 glycoforms were performed as follows. 1×10^5 isolated/differentiated cells at 5×10^5 cells per mL were incubated for 4 hours on ice with 10 μg of the appropriate biotinylated recombinant MUC1 glycoform in 0.5% BSA in PBS. Cells were washed in 0.5% BSA in PBS before 1:200 SAPE (Life Technologies) was added for 30 minutes on ice. Cells were washed and analysed by flow cytometry or fluorescent microscopy (after cytospin), using streptavidin-PE (SAPE) as a label.

isolated monocytes = assay: Factors released by monocytes after MUC1-ST treatment (protein array, ELISA); type: cell-based, human; conditions: 100 μg/10^6 cells MUC1-ST, 48 hours
Procedure: ELISAs for IL-6, IL-12p70, TGF-β1, PAI-1, M-CSF, EGF, SHP2, phospho-SHP2 (Biotechne) were all carried out as per manufacturer's instructions.
Recombinant MUC1-ST was bound to monocytes and the factors released determined using a protein array as follows. Briefly, isolated monocytes were treated with 100 μg/10^6 cells MUC1-ST for 4 hours at 4° C., washed and incubated at 37° C. for 48 hours in AIM-V serum-free media. Supernatant was taken and cytokine production was assessed using a 102 protein array (Bio-Techne).

THP-1 cells = assay: Calcium flux in differentiated THP-1 cells; type: cell-based, human; conditions: THP-1 differentiated with PMA, 100 μg/mL MUC1-ST
Procedure: In addition, in a murine tumor model Siglec-E (the mouse Siglec with the most similarity to human Siglec-9), was associated with a decrease in alternatively activated macrophages (Laubli et al. (2014) PROC. NATL. ACAD. SCI. USA). As a result, the triggering of a calcium flux when MUC1-ST engaged Siglec-9 was investigated. Briefly, monocytes pre-labeled with an intracellular calcium reporter (Fluo-4; Life Technologies) were treated with MUC1-ST, MUC1-T (100 μg/10^6 cells) or a T47D monolayer, for 4 hours at 4° C. The cells were brought up to 37° C. and calcium flux was measured at 530 nm using a plate reader at the indicated time points. Where not indicated, the time point was 60 seconds. When monocytes or macrophages were treated with MUC1-ST, a Siglec-9 dependent increase in calcium influx was observed (FIGS. 13E-F). A calcium flux was also observed when monocytes and T47D cells came into contact. This effect could also be inhibited by the anti-Siglec-9 antibody.
The intracellular effects of MUC1-ST binding to Siglec-9 were further explored in the monocytic cell line, THP-1. […] THP-1 cells were further treated with DMSO or the MEK/ERK inhibitor PD98059 at 1004, and the concentration of PAI-1, M-CSF and kynurenine in cell supernatants were measured as described above. […]

Sequence of Siglec-9 (Q9Y336 18-463): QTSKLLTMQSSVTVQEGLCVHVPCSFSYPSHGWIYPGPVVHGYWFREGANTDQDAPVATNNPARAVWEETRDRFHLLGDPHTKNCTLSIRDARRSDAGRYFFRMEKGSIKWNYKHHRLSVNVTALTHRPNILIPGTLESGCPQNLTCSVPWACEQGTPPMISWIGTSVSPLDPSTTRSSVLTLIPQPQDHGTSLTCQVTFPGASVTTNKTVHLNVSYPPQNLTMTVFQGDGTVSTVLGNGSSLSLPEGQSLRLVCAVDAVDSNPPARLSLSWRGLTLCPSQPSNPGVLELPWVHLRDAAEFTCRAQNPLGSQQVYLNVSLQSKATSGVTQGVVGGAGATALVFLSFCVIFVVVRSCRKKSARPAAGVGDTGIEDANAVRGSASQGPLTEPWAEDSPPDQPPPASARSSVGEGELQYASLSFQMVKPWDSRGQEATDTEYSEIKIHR

## NeuAcα2,3Galβ1-3GalNAc linked via a Ser/Thr of MUC1 [MUC1-ST]
[1]
  binding to recombinant Siglec fusion proteins: bound
Monocytes from PBMCs
  expression of ECM component collagen type I: increased expression
Monocytes from PBMCs; 7 days, serum-free medium
  percentage of live macrophages in the culture: increased
Monocytes from PBMCs; flow cytometry
  expression of TAM markers such as CD206 and PD-L1: increased expression
CD8+ T cells
  activation of CD8+ T cells (expression of CD25 and CD69): lower level of activation
CD8+ T cells; 48 hours co-culture
  proliferation of CD8+ T cells: significantly inhibited
Siglec-9
  binding to cells: found to bind
Isolated monocytes
  secretion of factors associated with inflammation and tumor progression (IL-6, M-CSF, PAI-1 validated by ELISA): induced
THP-1 cells
  calcium flux: induce calcium flux
